Experiments:
[1] = test system: nucleosomes from ESCs; experiment: Time-lapse TIRF imaging of antibody binding and dissociation on nucleosomes from ESCs; parameters: species or system Mouse; details: images every 15 minutes, FIG. 7B-C
Procedure: FIG. 7A-7F. Time-lapse images detect repeated antibody binding and dissociation events. (A) Mono-nucleosomes were extracted from HEK293 cells, labeled and distributed on the surface as described in FIG. 1A. […] Shown are images taken at 15, 30 and 45 minutes after addition of antibodies. (B-F) Nucleosomes from ESCs were distributed on the surface and incubated with antibodies targeting H3K27me3 (B, D, F) or H3K4me3 (C, E). Time lapse images were taken every 15 minutes. A total of 10,000 individual binding events were analyzed for each antibody. (B-C) Number of binding events detected at each time point. Equilibrium of binding and dissociation of antibodies is achieved at 45 minutes for H3K27me3, and 75 minutes for H3K4me3. Later images show mild reduction in signal due to photo bleaching. (D-E) For each nucleosome, the number of binding events by antibody was calculated in a total of 8 images taken during the time course of the experiment (30-135 minutes). Graph depicts a histogram of the number of images in which each nucleosome is bound by the antibody. Due to repeated binding and dissociation events, most of the nucleosomes are bound more than once. […]
(§1) All experiments were performed on a total internal reflection (TIRF) microscope with two lasers, 532 nm/75 mW and 640 nm/40 mW, for fluorescence excitation (Compass 215M, Cube-40C, Coherent). […]

[2] = test system: control peptides and singly modified peptides; experiment: Antibody specificity peptide array (dot-blot assay); type: binding; details: FIG. 9
Procedure: FIG. 9A-9B. Peptide array confirms high antibody specificity (A-B) Reactivity of H3K27me3 antibody (A) or H3K4me3 antibody (B) with control peptides and singly modified peptides.
To test for antibody specificity, Applicants used a peptide array with unlabeled antibodies (the same lots of antibodies that were labeled by Cell Signaling and used for the imaging) according to the following protocol: array is immersed in 4 ml blocking solution (TBST containing 5% non-fat dried milk) for 4 hours at room temperature. Next, array is washed 3 times with TBST, and primary antibody is added (diluted in TBST 1:25,000). Antibody is incubated over night at 4° C. on a rotor. Then the array is washed 3 times in TBST and the secondary antibody (Active Motif, 100612) is added for 1 hour at room temperature. Array is washed again 3 times in TBST and the signal is detected by FlourChemQ.

[3] = test system: recombinant unmodified nucleosomes; experiment: Single-molecule antibody binding to recombinant unmodified nucleosomes; details: monitored over time; FIG. 8A
Procedure: FIG. 8A-8B. Low background and high specificity of antibody binding. (A) Recombinant unmodified nucleosomes were prepared as previously described (91), and then ligated to biotinylated, fluorescent adaptors as in FIG. 1A. Binding of fluorescently-labeled H3K27me3 antibodies was monitored over time. […] For comparison, also shown are images of H3K27me3 antibody binding to nucleosomes prepared from HEK293 cells. (B) Western-blot analysis of labeled H3K27me3 peptide (TAMRA, green) bound by H3K27me3 antibodies (Alexa647, red). Fluorescent signal on membrane was visualized using a Typhoon trio+imager (Amersham Biosciences).
Applicants imaged millions of nucleosomes and decoded their modification state. Images are analyzed with Cell Profiler software. […] In contrast, when Applicants treated cells with histone deacetylase inhibitors (HDACi), the fraction of acetylated nucleosomes increased to 7% (FIG. 1C, 1D). Importantly, when Applicants repeated the analysis with recombinant unmodified nucleosomes, just 0.1% of nucleosomes scored (FIG. 1E, 8A). […]
as §1

time at which equilibrium of binding and dissociation of antibodies is achieved [1]: 45 min
binding events on recombinant unmodified nucleosomes [3]: Very few binding events were detected
Substance: H3K27me3 antibody: Tri-Methyl-Histone H3 (Lys27) (C36B11) Rabbit mAb (Alexa Fluor 647 Conjugate), Cell Signaling #12158
reactivity with control peptides and singly modified peptides (target specificity) [2]: very high target specificity and low background
